Laboratory results reported in US20250230193A1, “CYCLIC COMPOUND HAVING SELECTIVE KRAS INHIBITORY EFFECT ON HRAS AND NRAS” (CHUGAI SEIYAKU KABUSHIKI KAISHA, priority 2022, published 2025).

Experiments:
[1] = target: GDP-bound NRAS wild-type protein (Homo sapiens, UniProt P01111); test: Binding to NRAS by surface plasmon resonance (SPR), Single Cycle Kinetics; details: KD ratio NRAS/KRAS, class symbols
[2] = target: GDP-bound HRAS wild-type protein (Homo sapiens, UniProt P01112); test: Binding to HRAS by surface plasmon resonance (SPR), Single Cycle Kinetics; details: KD ratio HRAS/KRAS, class symbols
Chain of GDP-bound HRAS wild-type protein (P01112 whole entry): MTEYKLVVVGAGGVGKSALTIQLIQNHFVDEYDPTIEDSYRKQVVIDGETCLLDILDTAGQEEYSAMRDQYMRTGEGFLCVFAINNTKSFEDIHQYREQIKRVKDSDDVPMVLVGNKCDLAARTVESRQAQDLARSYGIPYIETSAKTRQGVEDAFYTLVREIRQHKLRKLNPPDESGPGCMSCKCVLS

Chain of GDP-bound NRAS wild-type protein (P01111 whole entry): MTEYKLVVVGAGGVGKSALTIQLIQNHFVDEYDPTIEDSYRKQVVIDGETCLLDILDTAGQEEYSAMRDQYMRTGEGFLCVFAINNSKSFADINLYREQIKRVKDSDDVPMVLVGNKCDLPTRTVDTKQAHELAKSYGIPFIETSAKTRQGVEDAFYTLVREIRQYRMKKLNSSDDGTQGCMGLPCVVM

Row | Structure (SMILES) | NRAS/KRAS (ratio of KD value with respect to GDP-bound NRAS wild-type protein to KD value with respect to KRAS) [1] | HRAS/KRAS (ratio of KD value with respect to GDP-bound HRAS wild-type protein to KD value with respect to KRAS) [2]
1 | CCC[C@H]1C(=O)N[C@@H]([C@@H](C)CC)C(=O)N(C)CC(=O)N(C)[C@H]2C/C=C\CCN(C2=O)[C@@H](Cc2ccc(C(F)(F)F)cc2)C(=O)N(C)CC(=O)N[C@@H](CCc2ccc3sc(C)c(C)c3c2)C(=O)N2C[C@H](OCC)C[C@H]2C(=O)NC2(CC(C)(C)C2)C(=O)N(C)[C@@H](C(CC)CC)C(=O)N(C)[C@H](C(=O)N(C)C)CC(=O)N1C [PP2900] | AA (a compound having 20 or more is denoted as AA) | A (a compound having 10 or more and less than 20 is denoted as A)
2 | CCC[C@H]1C(=O)N[C@@H]([C@@H](C)CC)C(=O)N(C)CC(=O)N(C)[C@H]2C/C=C\CCN(C2=O)[C@@H](Cc2ccc(C(F)(F)F)cc2)C(=O)N(C)CC(=O)N[C@@H](CCc2ccc3ccn(C)c3c2)C(=O)N2C[C@H](OCC)C[C@H]2C(=O)NC2(CC(C)(C)C2)C(=O)N(C)[C@@H](C2CCCC2)C(=O)N(C)[C@H](C(=O)N(C)C)CC(=O)N1C [PP2901] | A (a compound having 10 or more and less than 20 is denoted as A) | A (a compound having 10 or more and less than 20 is denoted as A)
3 | CCC[C@H]1C(=O)N[C@@H]([C@@H](C)CC)C(=O)N(C)CC(=O)N(C)[C@H]2C/C=C\CCN(C2=O)[C@@H](Cc2ccc(C)cc2)C(=O)N(C)CC(=O)N[C@@H](CCc2ccc3sc(C)c(C)c3c2)C(=O)N2C[C@H](OCC)C[C@H]2C(=O)NC2(CC(C)(C)C2)C(=O)N(C)[C@@H](C(CC)CC)C(=O)N(C)[C@H](C(=O)N(C)C)CC(=O)N1C [PP2902] | AA (a compound having 20 or more is denoted as AA) | A (a compound having 10 or more and less than 20 is denoted as A)
4 | CCC[C@H]1C(=O)N[C@@H]([C@@H](C)CC)C(=O)N(C)CC(=O)N(C)[C@H]2C/C=C\CCN(C2=O)[C@@H](Cc2ccc(C(F)(F)F)cc2)C(=O)N(C)CC(=O)N[C@@H](CCc2ccc3c(C)c(C)n(C)c3c2)C(=O)N2C[C@H](OCC)C[C@H]2C(=O)NC2(CC(C)(C)C2)C(=O)N(C)[C@@H](C(CC)CC)C(=O)N(C)[C@H](C(=O)N(C)C)CC(=O)N1C [PP2904] | AA (a compound having 20 or more is denoted as AA) | A (a compound having 10 or more and less than 20 is denoted as A)
5 | C#CC[C@H]1C(=O)N[C@@H]([C@@H](C)CC)C(=O)N(C)CC(=O)N(C)[C@H]2C/C=C\CCN(C2=O)[C@@H](Cc2ccc(C(F)(F)F)cc2)C(=O)N(C)CC(=O)N[C@@H](CCc2ccc(C(F)(F)F)c(OC)c2)C(=O)N2CCOC[C@H]2C(=O)NC2(CC(C)(C)C2)C(=O)N(C)[C@@H](C2CCCC2)C(=O)N(C)[C@H](C(=O)N(C)C)CC(=O)N1C [PP2905] | AA (a compound having 20 or more is denoted as AA) | A (a compound having 10 or more and less than 20 is denoted as A)
6 | CCC[C@H]1C(=O)N[C@@H]([C@@H](C)CC)C(=O)N(C)CC(=O)N(C)[C@H]2C/C=C\CCN(C2=O)[C@@H](Cc2ccc(C)cc2)C(=O)N(C)CC(=O)N[C@@H](CCc2ccc3c(C)c(C)n(C)c3c2)C(=O)N2C[C@H](OCC)C[C@H]2C(=O)NC2(CC(C)(C)C2)C(=O)N(C)[C@@H](C(CC)CC)C(=O)N(C)[C@H](C(=O)N(C)C)CC(=O)N1C [PP2906] | A (a compound having 10 or more and less than 20 is denoted as A) | A (a compound having 10 or more and less than 20 is denoted as A)
7 | CC[C@H](C)[C@@H]1NC(=O)[C@H](COC)N(C)C(=O)C[C@@H](C(=O)N(C)C)N(C)C(=O)[C@H](C2CCCC2)N(C)C(=O)C2(CC(C)(C)C2)NC(=O)[C@@H]2CCCCN2C(=O)[C@H](CCc2cc(F)c(C(F)(F)F)c(F)c2)NC(=O)CN(C)C(=O)[C@H](Cc2ccc(C(F)(F)F)cc2)N2CC/C=C\C[C@@H](C2=O)N(C)C(=O)CN(C)C1=O [PP2907] | AA (a compound having 20 or more is denoted as AA) | A (a compound having 10 or more and less than 20 is denoted as A)
8 | CCC[C@H]1C(=O)N[C@@H]([C@@H](C)CC)C(=O)N(C)CC(=O)N(C)[C@H]2C/C=C\CCN(C2=O)[C@@H](Cc2ccc(C(F)(F)F)cc2)C(=O)N(C)CC(=O)N[C@@H](CCc2ccc3c(C)cn(C)c3c2)C(=O)N2C[C@H](OCC)C[C@H]2C(=O)NC2(CC(C)(C)C2)C(=O)N(C)[C@@H](C(CC)CC)C(=O)N(C)[C@H](C(=O)N(C)C)CC(=O)N1C [PP2908] | AA (a compound having 20 or more is denoted as AA) | A (a compound having 10 or more and less than 20 is denoted as A)
9 | C#CC[C@H]1C(=O)N[C@@H]([C@@H](C)CC)C(=O)N(C)CC(=O)N(C)[C@H]2C/C=C\CCN(C2=O)[C@@H](Cc2ccc(C(F)(F)F)cc2)C(=O)N(C)CC(=O)N[C@@H](CCc2ccc(C(F)(F)F)c(OC)c2)C(=O)N2CC[C@H]2C(=O)NC2(CC(C)(C)C2)C(=O)N(C)[C@@H](C2CCCC2)C(=O)N(C)[C@H](C(=O)N(C)C)CC(=O)N1C [PP2909] | B (a compound having 3 or more and less than 10 is denoted as B) | B (a compound having 3 or more and less than 10 is denoted as B)
10 | CCC[C@H]1C(=O)N[C@@H]([C@@H](C)CC)C(=O)N(C)CC(=O)N(C)[C@H]2C/C=C\CCN(C2=O)[C@@H](Cc2ccc(C)cc2)C(=O)N(C)CC(=O)N[C@@H](CCc2ccc3c(C)cn(C)c3c2)C(=O)N2C[C@H](OCC)C[C@H]2C(=O)NC2(CC(C)(C)C2)C(=O)N(C)[C@@H](C(CC)CC)C(=O)N(C)[C@H](C(=O)N(C)C)CC(=O)N1C [PP2910] | AA (a compound having 20 or more is denoted as AA) | A (a compound having 10 or more and less than 20 is denoted as A)
11 | C#CC[C@H]1C(=O)N[C@@H]([C@@H](C)CC)C(=O)N(C)CC(=O)N(C)[C@H]2C/C=C\CCN(C2=O)[C@@H](Cc2ccc(C(F)(F)F)cc2)C(=O)N(C)CC(=O)N[C@@H](CCc2ccc(C(F)(F)F)c(OC)c2)C(=O)N2CC[C@H]2C(=O)NC2(CCC2)C(=O)N(C)[C@@H](C2CCCC2)C(=O)N(C)[C@H](C(=O)N(C)C)CC(=O)N1C [PP2911] | A (a compound having 10 or more and less than 20 is denoted as A) | B (a compound having 3 or more and less than 10 is denoted as B)
12 | CCC[C@H]1C(=O)N[C@@H]([C@@H](C)CC)C(=O)N(C)CC(=O)N(C)[C@H]2C/C=C\CCN(C2=O)[C@@H](Cc2ccc(C(F)(F)F)cc2)C(=O)N(C)CC(=O)N[C@@H](CCc2ccc3ccn(C)c3c2)C(=O)N2C[C@H](OCC)C[C@H]2C(=O)NC2(CC(C)(C)C2)C(=O)N(C)[C@@H](C(CC)CC)C(=O)N(C)[C@H](C(=O)N(C)C)CC(=O)N1C [PP2912] | AA (a compound having 20 or more is denoted as AA) | A (a compound having 10 or more and less than 20 is denoted as A)
13 | CCCN(C)C(=O)[C@@H]1CC(=O)N(C)[C@@H](CC)C(=O)N[C@@H]([C@@H](C)CC)C(=O)N(C)CC(=O)N(C)[C@H]2C/C=C\CCN(C2=O)[C@@H](Cc2ccc(C(F)(F)F)cc2)C(=O)N(C)CC(=O)N[C@@H](CCc2cc(F)c(C(F)(F)F)c(F)c2)C(=O)N2C[C@H](OCC3CC3)C[C@H]2C(=O)NC2(CCC2)C(=O)N(C)[C@@H](C2CCCC2)C(=O)N1C [PP2913] | A (a compound having 10 or more and less than 20 is denoted as A) | A (a compound having 10 or more and less than 20 is denoted as A)
14 | CCC[C@H]1C(=O)N[C@@H]([C@@H](C)CC)C(=O)N(C)CC(=O)N(C)[C@H]2C/C=C\CCN(C2=O)[C@@H](Cc2ccc(C)cc2)C(=O)N(C)CC(=O)N[C@@H](CCc2ccc3ccn(C)c3c2)C(=O)N2C[C@H](OCC)C[C@H]2C(=O)NC2(CC(C)(C)C2)C(=O)N(C)[C@@H](C(CC)CC)C(=O)N(C)[C@H](C(=O)N(C)C)CC(=O)N1C [PP2914] | AA (a compound having 20 or more is denoted as AA) | A (a compound having 10 or more and less than 20 is denoted as A)
15 | CCCN(C)C(=O)[C@@H]1CC(=O)N(C)[C@@H](CC)C(=O)N[C@@H]([C@@H](C)CC)C(=O)N(C)CC(=O)N(C)[C@H]2C/C=C\CCN(C2=O)[C@@H](Cc2ccc(C(F)(F)F)cc2)C(=O)N(C)CC(=O)N[C@@H](CCc2cc(F)c(C(F)(F)F)c(F)c2)C(=O)N2CC[C@H]2C(=O)NC2(CCC2)C(=O)N(C)[C@@H](C2CCCC2)C(=O)N1C [PP2915] | A (a compound having 10 or more and less than 20 is denoted as A) | A (a compound having 10 or more and less than 20 is denoted as A)
